Measured values taken from patent US20210347709A1, “RADIOFLUORINATED GPC3-BINDING PEPTIDES FOR PET IMAGING OF HEPATOCELLULAR CARCINOMA” (University of Southern California, priority 2020, published 2021).

Assays:
[1] = In vitro stability in PBS and mouse serum; assay type: in vitro ADME; settings: PBS at room temperature and mouse serum at 37° C., 2 h incubation, HPLC
Method: In Vitro Stability. The stability of Al[^18F]F-GP2076 or Al[^18F]F-GP2633 was evaluated in PBS and mouse serum. Briefly, 5.55 MBq of Al[^18F]F-GP2076 or Al[^18F]F-GP2633 was incubated with 0.5 ml of PBS at room temperature or mouse serum at 37° C. with gentle shaking. The stability test was carried out at 2 h after the incubation. For the PBS study, an aliquot of the solution was taken, and the radiochemical purity was determined by analytical HPLC. For the mouse serum study, after the addition of TFA, the mixture was passed through a 0.2-μm filter. An aliquot of the soluble fraction was taken, and the radiochemical purity was examined by analytical HPLC.

[2] = MicroPET/CT imaging and biodistribution, HepG2 tumor model; assay type: in vivo, nude mice; settings: both sexes, BALB/c nude, mouse, iv, 5.55 MBq, total radioactivity; for tissue to tissue ratio at 1 h / tissue to tissue ratio at 0.5 h / tissue to tissue ratio at 2 h: HepG2 (GPC3+) tumor bearing mice; for tissue to tissue ratio at 1 h / tissue uptake at 1 h: 60 min; for tissue to tissue ratio at 0.5 h / tissue uptake at 0.5 h: 30 min; for tissue to tissue ratio at 2 h / tissue uptake at 2 h: 120 min; for tissue uptake at 0.5 h / tissue uptake at 1 h / tissue uptake at 2 h: HepG2 (GPC3+) tumor model, PET
Method: (§1) MicroPET/CT Imaging and Biodistribution. MicroPET/CT scans were carried out using a Siemens Inveon PET/CT scanner (Siemens, Germany). Tumor-bearing mice (n=3/group) were intravenously injected with 5.55 MBq of Al[^18F]F-GP2076 or Al[^18F]F-GP2633 under isoflurane anesthesia. A ten-minute static PET scan for each animal was acquired at 30, 60, and 120 min after the injection. 3-Dimensional ordered subset expectation maximization (3D-OSEM) algorithm was used for the PET reconstruction, and CT was applied for attenuation correction. Detailed procedures for the microPET/CT imaging and biodistribution are provided in ESM.
(§2) All animal experiments were conducted according to the guideline of the Nanfang Hospital Animal Ethics Committee at the Southern Medical University. Male or female BALB/c nude mice (about 4-6 weeks old) were obtained from the Laboratory Animal Center at Southern Medical University. The HepG2 and McA-RH7777 HCC xenografts were established by subcutaneous injection of 1×10^6 tumor cells into the left shoulder of nude mice. The animals were used for in vivo studies when the tumors reached a size of 0.5-1 cm in diameter (4-6 weeks after inoculation).
(§3) Inveon Research Workplace (IRW) 3.0 software (Siemens, Germany) was used to measure the regions of interest (ROIs) determined by superimposing the ellipsoid volume of interest (VOI) on the target tissues. The radioactivity concentrations were measured by the mean pixel intensity within each VOI and converted to dose/ml using a calibration constant. Assuming the tissue density of 1 g/ml, the ROI was then converted to dose per gram and normalized as the percent injected dose per gram (% ID/g). Tumor-to-nontarget uptake ratios, including tumor-to-muscle (T/M), tumor-to-liver (T/L), and tumor-to-kidneys (T/K) ratios, were calculated by dividing the radioactivity uptake in tumor by that in the corresponding normal tissue or organ.

[3] = test system: GPC3-negative McA-RH7777 tumor; assay: MicroPET/CT imaging and biodistribution, McA-RH7777 tumor model; assay type: in vivo, nude mice; settings: for Tumor-to-muscle (T/M) uptake ratio: McA-RH7777 (GPC3−) tumor bearing mice; for Kidneys uptake / Liver uptake / Tumor uptake: McA-RH7777 (GPC3−) tumor model, PET; for Tumor uptake: decay-corrected
Method: as §1, §2, §3

[4] = as above; assay type: in vivo, nude mice; settings: both sexes, BALB/c nude, mouse, iv, 5.55 MBq, total radioactivity; for tissue to tissue ratio at 0.5 h / tissue to tissue ratio at 1 h / tissue to tissue ratio at 2 h: McA-RH7777 (GPC3−) tumor bearing mice; for tissue to tissue ratio at 0.5 h / tissue uptake at 0.5 h: 30 min; for tissue to tissue ratio at 1 h / tissue uptake at 1 h: 60 min; for tissue uptake at 0.5 h / tissue uptake at 1 h / tissue uptake at 2 h: McA-RH7777 (GPC3−) tumor model, PET; for tissue uptake at 2 h / tissue to tissue ratio at 2 h: 120 min
Method: as §1, §2, §3

[5] = HepG2 tumor / liver, read-out: Tumor-to-liver (T/L) uptake ratio
[6] = HepG2 tumor / muscle, read-out: Tumor-to-muscle (T/M) uptake ratio
[7] = intestine, read-out: Intestinal uptake
[8] = decay-corrected, read-out: Tumor uptake
[9] = kidneys, read-out: Kidneys uptake
[10] = muscle, read-out: Muscle uptake
[11] = tumor / kidneys, read-out: Tumor-to-kidneys (T/K) uptake ratio
[12] = McA-RH7777 tumor / muscle, read-out: Tumor-to-muscle (T/M) uptake ratio
[13] = tumor / liver, read-out: Tumor-to-liver (T/L) uptake ratio

percentage of intact radiotracer (in vitro stability) [1]: > 98%
tissue to tissue ratio at 1 h ([2]; HepG2 tumor / kidneys, read-out: Tumor-to-kidneys (T/K) uptake ratio): 0.09 ± 0.01
tissue to tissue ratio at 0.5 h [2, 5]: 1.77 ± 0.2
tissue to tissue ratio at 1 h [2, 5]: 2 ± 0.18
tissue to tissue ratio at 2 h [2, 5]: 1.28 ± 0.25
tissue to tissue ratio at 0.5 h [2, 6]: 9.11 ± 0.79
tissue to tissue ratio at 1 h [2, 6]: 12.2 ± 0.62
tissue to tissue ratio at 2 h [2, 6]: 6.2 ± 1.8
tissue uptake at 0.5 h ([2]; bone, read-out: Bone uptake): 0.47 %ID/g
tissue uptake at 1 h ([2]; bone, read-out: Bone uptake): 0.43 %ID/g
tissue uptake at 2 h ([2]; bone, read-out: Bone uptake): 0.55 %ID/g
tissue uptake at 0.5 h ([2]; brain, read-out: Brain uptake): 0.1 %ID/g
tissue uptake at 1 h ([2]; brain, read-out: Brain uptake): 0.11 %ID/g
tissue uptake at 2 h ([2]; brain, read-out: Brain uptake): 0.22 %ID/g
tissue uptake at 0.5 h ([2]; heart, read-out: Heart uptake): 1.04 %ID/g
tissue uptake at 1 h ([2]; heart, read-out: Heart uptake): 0.91 %ID/g
tissue uptake at 2 h ([2]; heart, read-out: Heart uptake): 0.37 %ID/g
tissue uptake at 0.5 h [2, 7]: 1.09 %ID/g
tissue uptake at 1 h [2, 7]: 1.3 %ID/g
tissue uptake at 2 h [2, 7]: 0.46 %ID/g
tissue uptake at 0.5 h [2, 8]: 3.13 %ID/g
tissue uptake at 1 h [2, 8]: 3.37 %ID/g
tissue uptake at 2 h [2, 8]: 1.3 %ID/g
tissue uptake at 0.5 h [2, 9]: 39.4 %ID/g
tissue uptake at 1 h [2, 9]: 36.9 %ID/g
tissue uptake at 2 h [2, 9]: 29.3 %ID/g
tissue uptake at 0.5 h ([2]; liver, read-out: Liver uptake): 1.8 %ID/g
tissue uptake at 1 h ([2]; liver, read-out: Liver uptake): 1.7 %ID/g
tissue uptake at 2 h ([2]; liver, read-out: Liver uptake): 1.04 %ID/g
tissue uptake at 0.5 h ([2]; lung, read-out: Lung uptake): 0.69 %ID/g
tissue uptake at 1 h ([2]; lung, read-out: Lung uptake): 0.59 %ID/g
tissue uptake at 2 h ([2]; lung, read-out: Lung uptake): 0.34 %ID/g
tissue uptake at 0.5 h [2, 10]: 0.35 %ID/g
tissue uptake at 1 h [2, 10]: 0.28 %ID/g
tissue uptake at 2 h [2, 10]: 0.22 %ID/g
tissue to tissue ratio at 0.5 h [2, 11]: 0.08 ± 0.01
tissue to tissue ratio at 2 h [2, 11]: 0.04 ± 0.01
Tumor-to-muscle (T/M) uptake ratio ([3]; 30 min): 3.87±1.97
Tumor-to-muscle (T/M) uptake ratio ([3]; 60 min): 6.20±2.67
Kidneys uptake ([3]; 30 min): 37.47 ± 2.57 % ID/g
Liver uptake ([3]; 30 min): 1.52 ± 0.11 % ID/g
Tumor uptake ([3]; 30 min): 1.75±0.05 % ID/g
Kidneys uptake ([3]; 60 min): 35.40 ± 0.92 % ID/g
Liver uptake ([3]; 60 min): 1.33 ± 0.06 % ID/g
Tumor uptake ([3]; 60 min): 1.64±0.03 % ID/g
Kidneys uptake ([3]; 120 min): 25.70 ± 3.35 % ID/g
Liver uptake ([3]; 120 min): 0.88 ± 0.20 % ID/g
Tumor uptake ([3]; 120 min): 0.66±0.06 % ID/g
tissue to tissue ratio at 0.5 h [4, 12]: 3.87 ± 1.97
tissue to tissue ratio at 1 h [4, 12]: 6.2 ± 2.67
tissue uptake at 0.5 h ([4]; bone, read-out: Bone uptake): 1.04 %ID/g
tissue uptake at 1 h ([4]; bone, read-out: Bone uptake): 0.8 %ID/g
tissue uptake at 2 h ([4]; bone, read-out: Bone uptake): 0.56 %ID/g
tissue uptake at 0.5 h ([4]; brain, read-out: Brain uptake): 0.78 %ID/g
tissue uptake at 1 h ([4]; brain, read-out: Brain uptake): 0.31 %ID/g
tissue uptake at 2 h ([4]; brain, read-out: Brain uptake): 0.22 %ID/g
tissue uptake at 0.5 h ([4]; heart, read-out: Heart uptake): 1.4 %ID/g
tissue uptake at 1 h ([4]; heart, read-out: Heart uptake): 1 %ID/g
tissue uptake at 2 h ([4]; heart, read-out: Heart uptake): 0.47 %ID/g
tissue uptake at 0.5 h [4, 7]: 1.43 %ID/g
tissue uptake at 1 h [4, 7]: 1.03 %ID/g
tissue uptake at 2 h [4, 7]: 0.65 %ID/g
tissue uptake at 0.5 h [4, 8]: 1.75 %ID/g
tissue uptake at 1 h [4, 8]: 1.64 %ID/g
tissue uptake at 2 h [4, 8]: 0.66 %ID/g
tissue uptake at 0.5 h [4, 9]: 37.5 %ID/g
tissue uptake at 1 h [4, 9]: 35.4 %ID/g
tissue uptake at 2 h [4, 9]: 25.7 %ID/g
tissue uptake at 0.5 h ([4]; liver, read-out: Liver uptake): 1.52 %ID/g
tissue uptake at 1 h ([4]; liver, read-out: Liver uptake): 1.33 %ID/g
tissue uptake at 2 h ([4]; liver, read-out: Liver uptake): 0.88 %ID/g
tissue uptake at 0.5 h ([4]; lung, read-out: Lung uptake): 0.93 %ID/g
tissue uptake at 1 h ([4]; lung, read-out: Lung uptake): 0.74 %ID/g
tissue uptake at 2 h ([4]; lung, read-out: Lung uptake): 0.49 %ID/g
tissue uptake at 0.5 h [4, 10]: 0.53 %ID/g
tissue uptake at 1 h [4, 10]: 0.31 %ID/g
tissue uptake at 2 h [4, 10]: 0.2 %ID/g
tissue to tissue ratio at 0.5 h [4, 11]: 0.05 ± 0.004
tissue to tissue ratio at 1 h [4, 11]: 0.05 ± 0.002
tissue to tissue ratio at 2 h [4, 11]: 0.03 ± 0.004
tissue to tissue ratio at 0.5 h [4, 13]: 1.15 ± 0.09
tissue to tissue ratio at 1 h [4, 13]: 1.23 ± 0.05
tissue to tissue ratio at 2 h [4, 13]: 0.78 ± 0.16
tissue to tissue ratio at 2 h ([4]; tumor / muscle, read-out: Tumor-to-muscle (T/M) uptake ratio): 5.5 ± 3.65
SMILES: CC(C)C[C@H](NC(=O)[C@H](CCCNC(=N)N)NC(=O)[C@H](CC(N)=O)NC(=O)[C@H](CC(=O)O)NC(=O)[C@H](CCCNC(=N)N)NC(=O)CNC(=O)CNC(=O)CNC(=S)Nc1ccc(CC2CN(CC(=O)O)CCN(CC(=O)O)CCN2CC(=O)O)cc1)C(=O)N[C@@H](CC(N)=O)C(=O)N[C@H](C(=O)NCC(=O)NCC(=O)N[C@H](C(=O)N[C@@H](Cc1ccc(O)cc1)C(=O)N[C@@H](Cc1ccccc1)C(=O)N[C@@H](CC(C)C)C(=O)N[C@H](C(=O)N[C@H](C(=O)N[C@@H](CCCNC(=N)N)C(=O)N[C@@H](CCC(N)=O)C(=O)O)[C@@H](C)O)[C@@H](C)O)[C@@H](C)O)C(C)C (single isomer, unassigned) [Al[^18F]F-GP2633]
